Measurements: patent US20140316004A1, “TREATMENT OF POULTRY FOR REDUCING THE FEED CONVERSION RATE OR FOR REDUCING THE INCIDENCE OF ASCITES” (TAMINCO N.V., priority 2006, published 2014)

Tests used:
[1] = Broiler slaughter test: production performance (mortality, growth rate, feed conversion rate); type: in vivo, broilers; conditions: 167 mg DMG per kg feed
Text: (§1) To examine all the effects associated with the supplementation of dimethylglycine in fowl feed, a test was setup with broilers as model species. In this slaughter test with 64 broiler hens, 14-day old chickens were bred for 26 days, i.e. till the age of 40 days. At the beginning of the test the broilers were ad random divided in 16 groups of 4 specimens. The birds were fed with one type of feed from the first day on till the end of the test period. The type of feed was attributed on a random basis to the different housings. The animals were setup with a colored ring around their leg for identification purposes within each housing. The control feed was based on a commercial broiler crumble enriched with 5% corn oil to increase the oxidative stress in the feed. Further 1% celite was mixed into the feed as external marker to allow the determination of the apparent nutrient digestibility. The feed had the following composition: 87.65% dry matter, 6.13% ash, 18.05% crude protein, 9.13% crude fat, 4.32% crude fibre and 50.01% other carbohydrates (including 89% starch and 2% sugar). It has a (calculated) metabolizable energy value of about 13.4 MJ/kg.
(§2) In the second type of feed 167 mg of DMG was added per kilogram to the same composition of feed as described for the control feed. Over the entire test period, the broilers consumed on average about 25 mg DMG per bird per day. The housing of the broilers consisted out of circular housings with an open roof and bottom and with a total surface of 0.72 m^2. The material of the fencing was a flexible wire netting with a height of 1 m and mazes of 2×2 cm and thickness of 2 mm. The bottom was strewed with a thick layer of turf with on top a layer of wood-shavings. Feed and water were ad libitum available at all times. The average environmental temperature was maintained at 15° C. to increase the occurrence of ascites (Shlosberg A., Zadikov I., Bendheim U., Handji V., Berman E. Avian Pathology, 21, 369-382 (1992)). A conventional light scheme of 23 hours light:1 hour dark was applied
The daily growth during the two periods (between the first and fifteenth day and between the sixteenth and twentysixth day) was calculated for each surviving animal. The feed uptake for each housing was also measured during both periods. The commercial feed conversion rate was calculated for each of the housings for both periods (FCRI and FCR II) and for the total growth period. This commercial feed conversion rate was calculated by dividing the total feed consumption by the weight gain of the birds which stayed alive during the entire experiment, including also the feed consumption of the birds that died. To determine only the non-therapeutic effect of DMG on the feed conversion rate, the actual feed conversion rate of the living birds was also calculated more particularly on the basis of weight gain and the feed consumed by these living birds (based on the weight gain of the birds that died, the amount of feed consumed by these birds was detracted from the total feed consumption).

[2] = system: ascites; test: Broiler slaughter test: incidence of ascites and ascites heart index at autopsy; type: in vivo, broilers
Text: as §1, §2
Finally there was also an autopsy on all chickens. First, the carcass weight was determined by dissection of the head, the paws, evisceration and the deduction of the average feather weight. Next, the weight of the breast, buttock and thigh muscle were determined. Also the heart, liver and abdominal fat were measured. Macroscopic lesions related to ascites were visually reviewed and described as indicated by Scheele et al. (2003) (Scheele, C. W., Van Der Klis, J. D., Kwakernaak, C., Buys, N., Decuypere, E., British Poultry Science, 44(3), 484-489 (2003)), these were: accumulation of liquid in the abdomen, a hydropericard and right heart dilatation. The latter was quantified by the ascites heart index (AHD being the ratio of the dry weight of the right ventricle to the dry weight of both ventricles after freeze drying.

[3] = 1000 mg pangamic acid per kg of feed; not affected, same as control group; cited from earlier work
[4] = system: ascites; conditions: coenzyme Q added to high-calorie pelletized feed, growth rate higher than 50 g/day; cited from earlier work

## CN(C)CC(=O)O [DMG, N,N-dimethylglycine]
[1]; 26-day test, 15° C, feed enriched with 5% corn oil
  Mortality (%): 6.25%
[1]; days 1-15
  Growth rate (g/d) Phase I (days 1-15): 70 g/day
[1]; days 1-15, includes feed of birds that died
  Commercial feed conversion FCR I (days 1-15): 2.23
[1]; days 1-15, living birds only
  Actual feed conversion FCR I (days 1-15): 2.07
[1]; days 1-26
  Growth rate (g/d) Total (days 1-26): 77 g/day
[1]; days 1-26, includes feed of birds that died
  Commercial feed conversion FCR total (days 1-26): 2.19
[1]; days 1-26, living birds only
  Actual feed conversion FCR total (days 1-26): 2.09
[1]; days 15-26
  Growth rate (g/d) Phase II (days 15-26): 87 g/day
[1]; days 15-26, includes feed of birds that died
  Commercial feed conversion FCR II (days 15-26): 2.17
[1]; days 15-26, living birds only
  Actual feed conversion FCR II (days 15-26): 2.13
[2]; 167 mg DMG per kg feed, 26-day test, 15° C
  Ascites (%): 6.25%
[2]; 167 mg DMG per kg feed, autopsy, all animals
  AHI, all animals (ascites heart index): 0.242
[2]; 167 mg DMG per kg feed, autopsy, surviving animals
  AHI, surviving animals (ascites heart index): 0.241
[2]; versus control, all animals
  Influence DMG (%) on AHI, all animals: −17.5%
[2]; versus control, surviving animals
  Influence DMG (%) on AHI, surviving animals: −19.2%

## CN(C)CC(=O)OC[C@@H](O)[C@@H](O)[C@H](O)[C@@H](O)C(=O)O [pangamic acid, 6-O-(dimethylaminoacetyl)-D-gluconic acid]
[3]
  feed conversion rate: about 2.5

## coenzyme Q
[4]
  mortality due to ascites: reduced considerably
